Reference: PMC5064022, “KCNE1 induces fenestration in the Kv7.1/KCNE1 channel complex that allows for highly specific pharmacological targeting” (Nature Communications, 2016)

Assays:
Type in all cases: cell-based
Kv7.1/KCNE1 [1] = target: T1, Kv7.1/KCNE1 (Homo sapiens, UniProt P15382+P51787); test: Two electrode voltage clamp of Kv7.1/KCNE1 currents in Xenopus oocytes; details: 10 µM; percent change in current amplitude at end of pulse to +40 mV
Procedure: Template cDNAs (wildtype or mutant human Kv7.1 in pSGEM, wildtype human KCNE1 in pSP64) were linearized with a suitable restriction enzyme (Nhe I/pSGEM, Eco RI/pSP64). cRNA was synthesized from 1 μg linearized cDNA by in vitro transcription (mMessage mMachine T7 or SP6 kit, Ambion, Life Technologies Darmstadt, Germany). cRNA concentrations were determined by photometry (Nanodrop, Peqlab, Erlangen, Germany) and cRNA quality was checked by agarose gel electrophoresis.
Oocytes were commercially obtained from EcoCyte Bioscience (Castrop-Rauxel, Germany). Injection of stage 4 or 5 oocytes was performed using a nanoliter injector 2000 (WPI, Berlin, Germany). For standard pharmacological measurements, each oocyte was injected with 5 ng Kv7.1 cRNA alone or with 1 ng KCNE1 cRNA. To investigate the influence of KCNE1 on AC-1 sensitivity of Kv7.1 tetramers, 5 ng Kv7.1 cRNA was injected with different amounts of KCNE1 cRNA (0 ng, 0.005 ng, 0.05 ng, 0.5 ng and 5 ng). Injected oocytes were maintained in an incubator at 17 °C for 4–5 days in standard Barth solution (EcoCyte Bioscience, Castrop-Rauxel, Germany) supplemented with 90 μg ml^−1 theophylline, 63 μg ml^−1 penicillin, 40 μg ml^−1 streptomycin, and 100 μg ml^−1 gentamycin until used for two electrode voltage clamp (TEVC) measurements.
TEVC measurements were performed using a TurboTec-10CD amplifier (npi Electronic, Tamm, Germany) and an ITC-16 AD/DA-interface (Instrutech Corporation, Port Washington, New York, USA). Pulse and PulseFit software (HEKA, Lambrecht/Pfalz, Germany) was used for data acquisition and analysis. During TEVC recordings, oocytes were constantly perfused with control solution (ND96, containing in mM: 96 NaCl, 4 KCl, 1.8 CaCl2, 1 MgCl2, 5 mM HEPES, pH 7.6 supplemented 0.1–0.3% DMSO). AC solutions were freshly prepared in ND96 from a 10 mM DMSO stock solution. Glass capillaries were pulled to a fine point to produce current and voltage electrodes that were back-filled with 3 M KCl. When filled with this solution, electrode resistances ranged from 0.5–1.5 MΩ. Different voltage pulse protocols were used as follows: (1) To study the inhibitory effect of different AC derivatives, Kv7.1/KCNE1 currents were elicited by repetitive 7 s pulses to +40 mV applied every 30 s from a holding potential of −80 mV. (2) To analyse the voltage dependence of channel activation, currents were elicited by 10 s pulses to test voltages between −100 and +60 mV, applied in 20 mV increments from a holding potential of −80 mV. Tail currents were recorded at −120 mV. For control we always expressed KCNE1 alone along mutant channels and mutant currents were only taken into account when it reached at least 2.5- to 3-fold the size of the background Xenopus-Kv7.1/hKCNE1 currents.
Electrophysiological data were analysed using PulseFit software (HEKA, Lambrecht/Pfalz, Germany) and GraphPad Prism (GraphPad Software, Inc., La Jolla, California, USA). Channel inhibition was determined as reduction of whole cell current amplitude at the end of a 7 s test pulse to +40 mV. The concentration of compound that caused half-maximal inhibition (IC50) were determined using the Hill equation: Idrug/Imax=1/(1+[C/IC50]^H), where Idrug is the current amplitude in the presence of the drug, Imax is the current amplitude before drug application, C is the drug concentration and H is the Hill coefficient.

Kv7.1/KCNE1 channels = test: Reversibility of AC-10 current inhibition by washout, with or without UV irradiation
Kv7.1/KCNE1 [2] = target: T1, Kv7.1/KCNE1; test: Current inhibition in CHO cells stably expressing Kv7.1/KCNE1
Procedure: Figure 5 PAL-based approach to identify AC binding site. (a) Schematic view of the PAL-based approach to investigate the binding site of AC-1. (b) Concentration-response curve for AC-10, the UV-active diazirine derivate of AC-1. The inhibitory effect of AC-10 was determined in CHO cells stably expressing Kv7.1/KCNE1. Inhibition was determined as percent change in current amplitude at the end of the depolarizing test pulse to +40 mV (±s.e.m.). (c) A new cDNA-construct (Kv7.1myc-2A-KCNE1myc in pXOOM) allows for functional expression of myc-tagged Kv7.1 and KCNE1 in HEK293T cells. In this construct, cDNAs of Kv7.1 and KCNE1 are linked via the T2A peptide sequence, which mediates co-translational protein cleavage. (d) Western blot analysis of affinity purified Kv7.1 and KCNE1 proteins. Kv7.1myc was purified using myc-agarose beads KCNE1 was purified using anti-KCNE1 coupled protein-A-sepharose beads (right). In both western blots, ‘+' indicates transfected cells, ‘−' indicates non-transfected control cells. Antibodies used for affinity purification are detected in ‘+' and ‘−'. […] It should be noted, that KCNE1, as a myc-tagged protein, should also be purified using the myc-agarose beads. […] Thus, KCNE1 expression was instead proven using the KCNE1 antibody. (e) Functional expression of Kv7.1myc-2A-KCNE1myc in HEK293T cells (scale bars indicate 1 nA, 1 s).

homomeric Kv7.1 channels = test: AC-10 on homomeric Kv7.1 channels

Structure (SMILES) | inhibition at 10 µM (Kv7.1/KCNE1 [1]) | further results
Cc1cc(Cl)ccc1OC(C)(C)C(=O)NC1C2CC3CC1CC(NS(=O)(=O)N(C)C)(C3)C2 (stereo not shown) [AC-7] | 38 ± 4.4% | –
Cc1cc(Cl)ccc1OC(C)(C)C(=O)NC1C2CC3CC1CC(O)(C3)C2 (stereo not shown) [AC-5] | 40.9 ± 1.4% | –
CC(C)(Oc1cccc(C(F)(F)F)c1)C(=O)NC1C2CC3CC1CC(NS(C)(=O)=O)(C3)C2 (stereo not shown) [AC-3] | 73.7 ± 2.9% | –
Cc1cc(Cl)ccc1OC(C)(C)C(=O)NC1[C@@H]2CC3C[C@H]1CC(NC(=O)CCC1(C)N=N1)(C3)C2 (stereo partly shown) [AC-10, 2-(4-chloro-2-methyl-phenoxy)-2-methyl-N-[(1 R,3 S)-5-[3-(3-methyldiazirin-3-yl)propanoylamino]-2-adamantyl]propanamide] | – | inhibition after 38 min washout (Kv7.1/KCNE1 channels; after UV irradiation): 75%; inhibition after 38 min washout (Kv7.1/KCNE1 channels; non UV-activated): 40%; Hill-coeff. (Kv7.1/KCNE1 [2]): 1.7; IC50 (Kv7.1/KCNE1 [2]; +40 mV): 16 nM; inhibition of homomeric Kv7.1 channels (homomeric Kv7.1 channels): did not inhibit
Cc1cc(Cl)ccc1OC(C)(C)C(=O)NC1C2CC3CC1CC(NS(C)(=O)=O)(C3)C2 (stereo not shown) [AC-2] | 86.8 ± 3% | –
Cc1cc(Cl)ccc1OC(C)(C)C(=O)NC1C2CC3CC1CC(C(=O)O)(C3)C2 (stereo not shown) [AC-6] | 64.6 ± 6.6% | –
Cc1cc(Cl)ccc1OC(C)(C)C(=O)NC1[C@@H]2CC3C[C@H]1CC(N)(C3)C2 (stereo partly shown) [AC-4, N-[(1 R,3 S)-5-amino-2-adamantyl]-2-(4-chloro-2-methyl-phenoxy)-2-methyl-propanamide] | 4.2 ± 6.1% | –

Second part, led by results:

inhibition at 10 µM (Kv7.1/KCNE1 [1]) | Structure (SMILES) | further results
78.6 ± 3.3% | Cc1cc(Cl)ccc1OC(C)(C)C(=O)NC1C2CC3CC1CC(NC(=O)CC(C)C)(C3)C2 (stereo not shown) [AC-9] | –
74.5 ± 6.2% | CCOC(=O)NC12CC3CC(C1)C(NC(=O)C(C)(C)Oc1ccc(Cl)cc1C)C(C3)C2 (stereo not shown) [AC-8] | –
